Values belong to the compound of their own block, whether it stands above or below them.
How the values were obtained:
BaF3 = experiment: Antiproliferative activity against mouse BaF3 cells harboring del19/T790M/C797S mutant assessed as inhibition of cell proliferation; type: functional, cell-based
PC-9 [1] = experiment: Antiproliferative activity against human PC-9 cells harboring EGFR del19/T790M/C797S mutant assessed as inhibition of cell proliferation; type: functional, cell-based
[2] = target: Epidermal growth factor receptor (Homo sapiens, UniProt P00533); experiment: Inhibition of wild type EGFR (unknown origin)
[3] = target: Epidermal growth factor receptor (Homo sapiens, UniProt P00533, L858R); experiment: Inhibition of EGFR L858R mutant (unknown origin)
[4] = target: Epidermal growth factor receptor (Homo sapiens, UniProt P00533, EX19DEL); experiment: Inhibition of EGFR del19 mutant (unknown origin)
[5] = target: Epidermal growth factor receptor (Homo sapiens, UniProt P00533, EX19DEL/T790M); experiment: Inhibition of EGFR del19/T790M mutant (unknown origin)
[6] = target: Epidermal growth factor receptor (Homo sapiens, UniProt P00533, L858R/T790M); experiment: Inhibition of EGFR L858R/T790M mutant (unknown origin)
[7] = target: Epidermal growth factor receptor (Homo sapiens, UniProt P00533, C797S/L858R/T790M); experiment: Inhibition of EGFR L858R/T790M/C797S mutant (unknown origin)
[8] = target: Epidermal growth factor receptor (Homo sapiens, UniProt P00533, C797S/EX19DEL/T790M); experiment: Inhibition of EGFR del19/T790M/C797S mutant (unknown origin)
Homo sapiens [9] = organism: Homo sapiens; experiment: Selectivity ratio of IC50 for inhibition of wild type EGFR (unknown origin) to IC50 for inhibition of EGFR L858R mutant (unknown origin)
Homo sapiens [10] = organism: Homo sapiens; experiment: Selectivity ratio of IC50 for inhibition of wild type EGFR (unknown origin) to IC50 for inhibition of EGFR del19 mutant (unknown origin)
Homo sapiens [11] = organism: Homo sapiens; experiment: Selectivity ratio of IC50 for inhibition of wild type EGFR (unknown origin) to IC50 for inhibition of EGFR del19/T790M mutant (unknown origin)
Homo sapiens [12] = organism: Homo sapiens; experiment: Selectivity ratio of IC50 for inhibition of wild type EGFR (unknown origin) to IC50 for inhibition of EGFR L858R/T790M mutant (unknown origin)
Homo sapiens [13] = organism: Homo sapiens; experiment: Selectivity ratio of IC50 for inhibition of wild type EGFR (unknown origin) to IC50 for inhibition of EGFR L858R/T790M/C797S mutant (unknown origin)
Homo sapiens [14] = organism: Homo sapiens; experiment: Selectivity ratio of IC50 for inhibition of wild type EGFR (unknown origin) to IC50 for inhibition of EGFR del19/T790M/C797S mutant (unknown origin)
[15] = Volume of distribution at steady state in CD-1 mouse at 2 mg/kg, iv; type: ADME, organism-based; settings: in vivo, read-out: Vdss
[16] = Half-life in CD-1 mouse at 2 mg/kg, iv; type: ADME, organism-based; settings: in vivo
[17] = Clearance in CD-1 mouse at 2 mg/kg, iv; type: ADME, organism-based; settings: in vivo
[18] = AUC (0 to last) in CD-1 mouse at 2 mg/kg, iv; type: ADME, organism-based; design: time 0 - last, dose 2 mg/kg, route iv; settings: in vivo
[19] = Cmax in CD-1 mouse at 10 mg/kg, po; type: ADME, organism-based; design: dose 10 mg/kg, route po; settings: in vivo
[20] = Tmax in CD-1 mouse at 10 mg/kg, po; type: ADME, organism-based; settings: in vivo
[21] = AUC (0 to last) in CD-1 mouse at 10 mg/kg, po; type: ADME, organism-based; design: time 0 - last, dose 10 mg/kg, route po; settings: in vivo
[22] = Oral bioavailability in CD-1 mouse at 10 mg/kg; type: ADME, organism-based; settings: in vivo
PC-9 [23] = experiment: cells; settings: Homo sapiens, PC-9, 72 h

Sequence of Epidermal growth factor receptor (Homo sapiens, UniProt P00533, L858R/T790M) (P00533 25-1210 T790M/L858R limits assumed): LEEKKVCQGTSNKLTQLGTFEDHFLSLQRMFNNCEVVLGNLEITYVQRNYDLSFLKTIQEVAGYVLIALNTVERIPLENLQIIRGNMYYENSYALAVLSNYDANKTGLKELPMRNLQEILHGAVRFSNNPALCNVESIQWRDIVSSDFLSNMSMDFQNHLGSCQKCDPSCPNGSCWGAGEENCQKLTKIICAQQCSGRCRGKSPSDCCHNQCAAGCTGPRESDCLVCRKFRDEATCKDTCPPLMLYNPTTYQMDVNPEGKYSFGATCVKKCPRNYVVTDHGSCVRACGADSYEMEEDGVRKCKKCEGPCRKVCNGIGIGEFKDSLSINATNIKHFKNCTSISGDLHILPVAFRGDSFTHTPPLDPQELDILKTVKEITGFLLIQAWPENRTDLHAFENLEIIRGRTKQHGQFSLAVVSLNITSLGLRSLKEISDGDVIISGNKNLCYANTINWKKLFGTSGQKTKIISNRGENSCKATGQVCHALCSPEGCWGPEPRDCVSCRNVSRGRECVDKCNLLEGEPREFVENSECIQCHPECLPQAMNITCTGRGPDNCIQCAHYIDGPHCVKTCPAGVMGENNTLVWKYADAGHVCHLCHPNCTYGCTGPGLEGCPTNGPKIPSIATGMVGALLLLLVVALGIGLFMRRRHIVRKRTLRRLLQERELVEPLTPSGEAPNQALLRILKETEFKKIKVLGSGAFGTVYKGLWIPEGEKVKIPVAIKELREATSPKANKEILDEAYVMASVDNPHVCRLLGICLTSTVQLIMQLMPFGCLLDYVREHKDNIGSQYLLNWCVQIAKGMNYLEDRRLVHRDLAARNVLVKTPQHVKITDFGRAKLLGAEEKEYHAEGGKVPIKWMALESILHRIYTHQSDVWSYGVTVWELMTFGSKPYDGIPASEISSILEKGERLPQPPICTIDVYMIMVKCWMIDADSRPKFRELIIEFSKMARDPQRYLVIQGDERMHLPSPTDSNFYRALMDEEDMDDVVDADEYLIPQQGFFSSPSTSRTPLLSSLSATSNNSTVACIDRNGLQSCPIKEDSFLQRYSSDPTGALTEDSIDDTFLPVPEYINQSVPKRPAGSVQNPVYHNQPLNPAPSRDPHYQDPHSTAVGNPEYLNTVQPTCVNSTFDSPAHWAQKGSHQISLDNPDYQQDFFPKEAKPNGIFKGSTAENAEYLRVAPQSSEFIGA
Sequence of Epidermal growth factor receptor (Homo sapiens, UniProt P00533, L858R) (P00533 25-1210 L858R limits assumed): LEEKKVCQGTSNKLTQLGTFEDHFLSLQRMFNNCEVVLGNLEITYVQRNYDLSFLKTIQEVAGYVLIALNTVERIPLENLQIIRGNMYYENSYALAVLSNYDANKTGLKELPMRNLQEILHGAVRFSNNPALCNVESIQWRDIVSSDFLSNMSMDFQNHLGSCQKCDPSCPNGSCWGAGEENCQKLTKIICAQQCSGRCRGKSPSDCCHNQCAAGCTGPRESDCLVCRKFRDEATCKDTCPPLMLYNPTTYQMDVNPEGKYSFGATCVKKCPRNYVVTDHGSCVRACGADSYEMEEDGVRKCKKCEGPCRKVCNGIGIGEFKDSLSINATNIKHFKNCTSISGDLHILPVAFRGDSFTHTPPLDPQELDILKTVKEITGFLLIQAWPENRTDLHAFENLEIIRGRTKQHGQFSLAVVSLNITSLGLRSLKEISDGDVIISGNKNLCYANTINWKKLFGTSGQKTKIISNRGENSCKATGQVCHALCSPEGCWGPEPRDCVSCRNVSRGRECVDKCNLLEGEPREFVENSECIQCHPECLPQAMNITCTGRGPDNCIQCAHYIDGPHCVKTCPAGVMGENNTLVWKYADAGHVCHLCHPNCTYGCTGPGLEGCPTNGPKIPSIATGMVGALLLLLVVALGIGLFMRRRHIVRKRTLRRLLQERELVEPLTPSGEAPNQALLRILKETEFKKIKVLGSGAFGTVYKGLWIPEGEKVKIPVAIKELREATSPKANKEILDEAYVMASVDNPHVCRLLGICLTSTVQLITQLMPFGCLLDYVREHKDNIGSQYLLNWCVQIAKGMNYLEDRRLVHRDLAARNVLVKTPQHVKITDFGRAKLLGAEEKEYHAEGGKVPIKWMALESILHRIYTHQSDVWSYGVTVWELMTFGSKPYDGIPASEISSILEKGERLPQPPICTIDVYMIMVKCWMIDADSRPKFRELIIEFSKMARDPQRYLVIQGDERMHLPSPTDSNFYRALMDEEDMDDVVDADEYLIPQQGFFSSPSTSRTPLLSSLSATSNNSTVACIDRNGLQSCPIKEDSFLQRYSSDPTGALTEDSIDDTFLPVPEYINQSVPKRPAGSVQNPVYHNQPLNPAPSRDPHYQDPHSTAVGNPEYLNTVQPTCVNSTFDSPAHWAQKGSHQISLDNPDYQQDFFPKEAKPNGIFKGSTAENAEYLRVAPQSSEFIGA
Sequence of Epidermal growth factor receptor (Homo sapiens, UniProt P00533, C797S/L858R/T790M) (P00533 25-1210 T790M/C797S/L858R limits assumed): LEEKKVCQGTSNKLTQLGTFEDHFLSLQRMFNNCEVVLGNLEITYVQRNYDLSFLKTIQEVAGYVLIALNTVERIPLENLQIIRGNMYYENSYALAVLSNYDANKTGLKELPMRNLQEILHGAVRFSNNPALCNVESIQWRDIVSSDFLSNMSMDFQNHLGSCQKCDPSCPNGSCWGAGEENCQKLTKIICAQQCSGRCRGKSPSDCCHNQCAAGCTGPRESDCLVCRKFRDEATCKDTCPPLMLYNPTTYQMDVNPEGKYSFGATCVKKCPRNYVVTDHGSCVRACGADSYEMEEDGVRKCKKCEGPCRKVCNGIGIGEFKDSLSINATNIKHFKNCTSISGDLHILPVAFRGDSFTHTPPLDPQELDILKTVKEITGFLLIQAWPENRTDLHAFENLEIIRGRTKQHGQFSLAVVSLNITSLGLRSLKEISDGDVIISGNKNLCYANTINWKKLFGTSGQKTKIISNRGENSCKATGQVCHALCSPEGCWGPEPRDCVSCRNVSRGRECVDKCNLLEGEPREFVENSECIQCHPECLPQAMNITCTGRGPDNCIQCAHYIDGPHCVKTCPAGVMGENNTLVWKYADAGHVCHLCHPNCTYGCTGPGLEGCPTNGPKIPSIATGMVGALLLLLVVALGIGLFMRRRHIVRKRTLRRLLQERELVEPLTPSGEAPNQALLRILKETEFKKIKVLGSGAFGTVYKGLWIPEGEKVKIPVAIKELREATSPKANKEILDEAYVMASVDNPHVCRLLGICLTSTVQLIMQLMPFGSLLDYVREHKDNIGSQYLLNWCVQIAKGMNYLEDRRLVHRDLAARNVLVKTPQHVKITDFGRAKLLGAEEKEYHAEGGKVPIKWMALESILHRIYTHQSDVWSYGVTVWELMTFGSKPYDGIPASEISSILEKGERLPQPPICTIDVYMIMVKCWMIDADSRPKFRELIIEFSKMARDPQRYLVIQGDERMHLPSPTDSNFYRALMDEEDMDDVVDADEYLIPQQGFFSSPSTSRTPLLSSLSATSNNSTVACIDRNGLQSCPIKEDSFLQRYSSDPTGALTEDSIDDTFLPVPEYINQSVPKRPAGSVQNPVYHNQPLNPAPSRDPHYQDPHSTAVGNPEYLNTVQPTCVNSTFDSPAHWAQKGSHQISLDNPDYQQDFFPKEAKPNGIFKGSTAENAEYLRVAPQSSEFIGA
Sequence of Epidermal growth factor receptor (Homo sapiens, UniProt P00533, C797S/EX19DEL/T790M) (P00533 whole entry, looked up, stated change not applied): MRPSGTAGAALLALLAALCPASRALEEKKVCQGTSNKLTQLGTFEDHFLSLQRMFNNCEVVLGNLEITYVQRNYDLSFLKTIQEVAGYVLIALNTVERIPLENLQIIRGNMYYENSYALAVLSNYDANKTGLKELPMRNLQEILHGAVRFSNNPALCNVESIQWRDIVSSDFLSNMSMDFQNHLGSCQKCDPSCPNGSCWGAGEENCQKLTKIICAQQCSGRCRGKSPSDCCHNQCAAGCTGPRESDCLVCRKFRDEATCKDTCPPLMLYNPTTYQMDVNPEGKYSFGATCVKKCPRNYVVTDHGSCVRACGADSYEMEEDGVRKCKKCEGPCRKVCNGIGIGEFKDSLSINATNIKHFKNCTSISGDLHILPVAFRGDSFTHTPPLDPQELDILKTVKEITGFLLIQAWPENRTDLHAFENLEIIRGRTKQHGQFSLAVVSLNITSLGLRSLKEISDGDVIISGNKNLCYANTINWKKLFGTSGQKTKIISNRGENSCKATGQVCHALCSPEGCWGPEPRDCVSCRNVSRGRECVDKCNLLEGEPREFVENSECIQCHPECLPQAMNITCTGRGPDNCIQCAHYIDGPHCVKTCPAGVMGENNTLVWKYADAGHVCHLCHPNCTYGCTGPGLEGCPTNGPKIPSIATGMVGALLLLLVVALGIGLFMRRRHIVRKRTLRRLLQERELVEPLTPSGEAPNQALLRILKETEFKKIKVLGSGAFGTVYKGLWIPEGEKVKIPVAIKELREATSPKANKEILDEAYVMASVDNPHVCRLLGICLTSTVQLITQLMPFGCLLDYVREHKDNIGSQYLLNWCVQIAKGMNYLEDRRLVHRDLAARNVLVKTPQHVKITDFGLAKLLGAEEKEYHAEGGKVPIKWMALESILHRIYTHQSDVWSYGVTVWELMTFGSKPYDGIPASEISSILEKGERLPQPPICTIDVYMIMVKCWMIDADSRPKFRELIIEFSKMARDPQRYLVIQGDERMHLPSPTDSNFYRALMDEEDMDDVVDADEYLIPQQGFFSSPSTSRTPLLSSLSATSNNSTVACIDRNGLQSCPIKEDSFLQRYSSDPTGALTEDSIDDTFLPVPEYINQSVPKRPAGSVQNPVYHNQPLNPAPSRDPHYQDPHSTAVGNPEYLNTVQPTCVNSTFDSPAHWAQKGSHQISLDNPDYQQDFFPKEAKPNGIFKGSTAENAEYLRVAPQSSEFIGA

IC50 (BaF3): > 1000 nM
IC50 (PC-9 [1]): > 1000 nM
SMILES: CCc1cc(Nc2ncc(Br)c(Nc3ccc(C4CC4)cc3P(C)(C)=O)n2)c(OC)cc1N1CCC(N2CCN(CCS(C)(=O)=O)CC2)CC1

IC50 (BaF3): > 1000 nM
IC50 (PC-9 [1]): > 1000 nM
SMILES: COc1cc(N2CCC(N3CCN(C)CC3)CC2)c(-c2cnn(C)c2)cc1Nc1ncc(Br)c(Nc2cc(F)c(C)c(C)c2P(C)(C)=O)n1

IC50 (BaF3): 3.6 nM
IC50 (PC-9 [1]): 67.4 nM
SMILES: COc1cc(N2CCC(N3CCN(C)CC3)CC2)c(-c2cnn(C)c2)cc1Nc1ncc(Br)c(Nc2cc(C)c(C)c(C)c2P(C)(C)=O)n1

IC50 (BaF3): 3.87 nM
IC50 (PC-9 [1]): 148 nM
SMILES: CCc1cc(Nc2ncc(Br)c(Nc3ccc4nccnc4c3P(C)(C)=O)n2)c(OC)cc1N1CCC(N2CCN(CCSC)CC2)CC1

IC50 (BaF3): 37.4 nM
IC50 (PC-9 [1]): 217 nM
SMILES: CCc1cc(Nc2ncc(Br)c(Nc3ccc4nc5c(nc4c3P(C)(C)=O)CCCC5)n2)c(OC)cc1N1CCC(N2CCN(C)CC2)CC1

IC50 (BaF3): > 1000 nM
IC50 (PC-9 [1]): > 1000 nM
SMILES: CCc1cc(Nc2ncc(Br)c(Nc3cc4c5c(cccc5c3P(C)(C)=O)CC4)n2)c(OC)cc1N1CCC(N2CCN(C)CC2)CC1

IC50 (PC-9 [1]): 127 nM
SMILES: CCc1cc(Nc2ncc(Br)c(Nc3ccc4nccnc4c3P(C)(C)=O)n2)c(OC)cc1N1CCC(N(C)CCS(C)(=O)=O)CC1

IC50 (BaF3): > 1000 nM
IC50 (PC-9 [1]): > 1000 nM
SMILES: COc1cc(N2CCC(N3CCN(C)CC3)CC2)c(-c2cnn(C3CC3)c2)cc1Nc1ncc(Br)c(Nc2ccc(C)c(C)c2P(C)(C)=O)n1

IC50 (BaF3): > 1000 nM
IC50 (PC-9 [1]): > 1000 nM
SMILES: COc1cc(N2CCC(N3CCN(C)CC3)CC2)ccc1Nc1ncc(Br)c(Nc2cc3c4c(cccc4c2P(C)(C)=O)CC3)n1

IC50 (BaF3): > 1000 nM
IC50 (PC-9 [1]): > 1000 nM
SMILES: CCc1cc(Nc2ncc(Br)c(Nc3cc4c5c(cccc5c3P(C)(C)=O)COC4)n2)c(OC)cc1N1CCC(N2CCN(C)CC2)CC1

IC50 (BaF3): > 1000 nM
IC50 (PC-9 [1]): > 1000 nM
SMILES: COc1cc(N2CCC(N3CCN(C)CC3)CC2)ccc1Nc1ncc(Br)c(Nc2ccc3c(ccc4ccccc43)c2P(C)(C)=O)n1

IC50 (BaF3): > 1000 nM
IC50 (PC-9 [1]): > 1000 nM
SMILES: COc1cc(N2CCC(N3CCN(C)CC3)CC2)ccc1Nc1ncc(Br)c(Nc2cc3c4c(cccc4c2P(C)(C)=O)COC3)n1

IC50 (BaF3): > 1000 nM
IC50 (PC-9 [1]): > 1000 nM
SMILES: CCc1cc(Nc2ncc(Br)c(Nc3ccc4c(ccc5ccccc54)c3P(C)(C)=O)n2)c(OC)cc1N1CCC(N2CCN(C)CC2)CC1

IC50 (BaF3): 1.53 nM
IC50 (PC-9 [1]): 66.7 nM
IC50 [2]: 10.4 nM
IC50 [3]: 3.1 nM
IC50 [4]: 0.9 nM
IC50 [5]: 0.1 nM
IC50 [6]: 0.2 nM
IC50 [7]: 0.3 nM
IC50 [8]: 0.2 nM
Ratio IC50 (Homo sapiens [9]): 3.4
Ratio IC50 (Homo sapiens [10]): 11
Ratio IC50 (Homo sapiens [11]): 81
Ratio IC50 (Homo sapiens [12]): 43
Ratio IC50 (Homo sapiens [13]): 41
Ratio IC50 (Homo sapiens [14]): 54
Vd [15]: 0.7 L/kg
half-life [16]: 3.3 h
clearance [17]: 2.4 mL/min/kg
AUClast [18]: 13820 ng·h/mL
Cmax [19]: 6600 ng/mL
Tmax [20]: 0.5 h
AUC(0-t) [21]: 33800 ng·h/mL
bioavailability [22]: 48.9%
SMILES: CCc1cc(Nc2ncc(Br)c(Nc3ccc4nccnc4c3P(C)(C)=O)n2)c(OC)cc1N1CCC(N2CCN(CCS(C)(=O)=O)CC2)CC1

IC50 (PC-9 [23]): 599 nM
SMILES: COc1cc(N2CCC(N3CCN(C)CC3)CC2)ccc1Nc1ncc(Cl)c(Nc2ccccc2P(C)(C)=O)n1 [BRIGATINIB]

IC50 (BaF3): > 1000 nM
IC50 (PC-9 [1]): > 1000 nM
SMILES: COc1cc(N2CCC(N3CCN(CCS(C)(=O)=O)CC3)CC2)c(-c2cnn(C)c2)cc1Nc1ncc(Br)c(Nc2ccc(C)c(C)c2P(C)(C)=O)n1

Reference: ChEMBL document CHEMBL5113388 (Bioorg Med Chem Lett, 2022)
